Measured values: US8148385B2, “Substituted [1,2,3] triazolo[4,5-d]pyrimidine derivatives as ADP P2Y12 receptor antagonists” (Janssen Pharmaceutica N.V., priority 2006, dated 2012)

Assays:
ADP P2Y12 = molecular target: T1, ADP P2Y12 (Homo sapiens, UniProt Q9H244); assay: FLIPR calcium assay transducing Gi-coupled signaling to the Gq pathway (inhibition of calcium mobilization); assay type: cell-based; conditions: HEK 293 cells co-transfected with P2Y12 and Gqi5, ADP at EC60-70 dose
T1 construct: expressed in transfected cells
Text: A FLIPR Calcium Assay Transducing Gi-Coupled Signaling to the Gq Pathway
The ADP P2Y12 subtype is a Gi coupled GPCR, which mediates inhibition of adenylate cyclase leading to decreased cAMP while Gq proteins primarily activate phospholipase C, which stimulates inositol-1,4,5-triphosphate (IP3) formation and a subsequent increase in intracellular Ca^2+ concentration, which can be easily measured by FLIPR. Prior to the development of a method to convert a Gi coupled GPCR signaling to a Gq coupled GPCR signaling, a significant barrier existed for the functional testing and screening of Gi coupled GPCRs. One popular method, GTPγS migration, is slow, produces a small signal and generates radioactive waste. The discovery that a small switch in the amino acid sequence in the Gi protein could convert it to a protein mediating a Gq coupled response has led to the development of robust, high throughput assays for this valuable receptor subtype.
The FLIPR-based HTS assay transducing the Gi signaling to the Gq pathway is described below.
pcDNA3hygroP2Y12 containing a hygromycin resistance gene and pLEC1-Gqi5-HA containing a neomycin resistance gene (licensed from Molecular Devices, Sunnyvale, Calif.) were co-transfected into Human embryonic kidney (HEK) 293 cells with SuperFect (Qiagen, Valencia, Calif.). Cell clones were selected in the presence of 600 μg/ml hygromycin B (Life Technologies, Carlsbad, Calif.) and 1 mg/ml of G418 (Mediatech, Herndon, Va.). Drug resistant colonies were picked and screened by FLIPR and the gene expression was further confirmed by RT-PCR. Positive clones were maintained in growth medium (DMEM supplemented with 10% FBS, 1×p/s) containing 400 μg/ml of G418 and 200 μg/ml of hygromycin.
The day before the assay, cells are seeded in clear, flat-bottom black-wall, tissue culture treated polystyrene 96- or 384-well plates and incubated at 37° C., 5% CO2. 50 μl of complete dye loading solution (FLIPR Calcium Assay Kit, Molecular Devices) was added to each well containing 100 μl of culture media. The cells were incubated for at least 30 min at 37° C., in 5% CO2 before initiating the assay on the FLIPR. The agonist effect of ADP was tested and EC50 was determined prior to compound testing. The EC60-70 dose was used.
The antagonist compounds were prepared at 4× and the agonists were diluted at 5× the concentration desired in the test wells, and then aliquoted into the sample plates. The sample plates and the cell plate were placed in the FLIPR assay chamber. A first addition (50 μl) was made at the start of reading and a second addition (50 μl) was made after 5 min of reading. Raw fluorescence data was exported for each well and tabulated versus time within an ASCII file. Data was then imported into Excel and the peak response over the basal level was determined. The percent inhibition for each compound was calculated by the change in fluorescent density as a % inhibition of the control ADP response to obtain an IC50, as shown in Table 1 (wherein N/A means Not Applicable).

P2Y12 receptor = molecular target: T2, P2Y12 receptor (Homo sapiens, UniProt Q9H244); assay: Whole cell receptor binding assay for 2-MeS[3H]-ADP; conditions: whole HEK 293 cells transfected with P2Y12; 2-MeS[3H]-ADP 3 nM; 30 min at 37° C.; read-out: Inhibition of Receptor Binding IC50
T2 construct: expressed in transfected cells
Experimental: A whole cell-binding assay for 2-MeS [^3H]-ADP (Custom synthesized by Amersham BioScience, Piscataway, N.J.) to the P2Y12 receptor was performed.
A P2Y12 cDNA containing hygromycin resistant gene was transfected in HEK 293 cells. A stable cell line was obtained by a cloning selection method. The cells were cultured in DMEM supplemented with 10% FBS and 1× of p/s.
On the day of the assay, the cells were harvested and resuspended in 0.25% BSA-DMEM and adjusted to a cell concentration of 1.6×10^6/ml. […] The reaction was then incubated for 30 min at 37° C. and stopped by adding cold DMEM. […] The plates were dyed in a 37° C. oven for 1-2 hours and 50 μl of MicroScint-20 (PerkinElmer) was added to each well. The radioactivity was measured using a TOPCOUNT beta counter (Packard).

washed platelets = assay: In vitro platelet aggregation; assay type: cell-based; conditions: Homo sapiens, washed platelets from healthy volunteers, agonist (ADP) at 60-70% aggregation, % inhibition of control ADP response
Experimental: Platelet aggregation studies were performed according to a published method (Bednar, B., Condra, C., Gould, R. J., and Connolly, T. M., Throm. Res., 77:453-463 (1995). Platelet-rich plasma (PRP) concentrates prepared from healthy volunteers who were aspirin free for at least 7 days by venipuncture using ACD-A as anticoagulant was purchased from Biological Specialties, Inc. (Colmar, Pa.). PRP was centrifuged at 730 g for 15 min. The platelet pellet was washed twice in CGS buffer (13 mM sodium citrate, 30 mM glucose, 120 mM NaCl, pH 6.5) containing 1 μ/ml apyrase (grade V, Sigma-Aldrich, St. Louis, Mo.), 1 mM EGTA, and resuspended in Tyrode's buffer (140 mM NaCl, 2.7 mM KCl, 12 mM NaHCO3, 0.76 mM Na2HPO4, 5.5 mM dextrose, 5.0 mM Hepes, 0.2% BSA, pH 7.4). The platelets were diluted to 3×10^8 platelets/ml and kept >45 min at 37° C. before use. 105 μl of washed platelets, 2 mM CaCl2 and […] of fibrinogen were added to a 96-well microliter plate.
Platelet aggregation was initiated by the addition of serial concentrations of ADP (BioData Corp. Horsham, Pa.). Buffer was added to one set of control wells. The assay plate was stirred constantly and intermittently placed in a microplate reader (Softmax, Molecular Devices, Menlo Park, Calif.) to read optical density (650 nm) at 0 and 5 minutes after the addition of the compound solutions. Aggregation was calculated as the decrease in optical density between the time 0- and 5-min measurements and expressed as % of aggregation. For the inhibition assay, platelet aggregation was conducted as described above except for compound additions. Test compounds were prepared in 100% DMSO and stored.
On the day of the assay, test compounds were diluted in the buffer containing 3% of DMSO as a 10× working solution. 15 μl of compound solutions were added to 105 μl of platelets 5 min prior to the addition of CaCl2 and fibrinogen.

T1 sequence (Q9H244 whole entry): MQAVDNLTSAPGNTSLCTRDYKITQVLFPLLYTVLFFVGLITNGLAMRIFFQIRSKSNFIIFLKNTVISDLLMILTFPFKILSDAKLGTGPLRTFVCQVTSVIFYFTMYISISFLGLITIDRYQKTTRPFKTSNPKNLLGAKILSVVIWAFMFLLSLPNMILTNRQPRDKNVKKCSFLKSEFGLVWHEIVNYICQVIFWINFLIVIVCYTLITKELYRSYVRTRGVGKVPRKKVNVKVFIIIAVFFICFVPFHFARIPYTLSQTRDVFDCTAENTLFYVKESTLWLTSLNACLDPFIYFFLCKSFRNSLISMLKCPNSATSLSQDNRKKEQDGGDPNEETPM
T2 sequence (Q9H244 whole entry): as above

Row | IC50 (ADP P2Y12) | IC50 (P2Y12 receptor) | SMILES | IC50 (washed platelets)
1 | > 30 µM |  | CCCSc1nc(NC[C@H]2CCCO2)c2nnn([C@@H]3C=C[C@H](O)[C@@H](O)[C@H]3O)c2n1 [Cpd 2, (1S,2R,3S,6R)-6-(5-propylsulfanyl-7-{[(2R)-tetrahydro-furan-2-ylmethyl]-amino}-[1,2,3]triazolo[4,5-d]pyrimidin-3-yl)-cyclohex-4-ene-1,2,3-triol] | 
2 | > 30 µM |  | CCCSc1nc(NCc2ccco2)c2nnn([C@@H]3C=C[C@H](O)[C@@H](O)[C@H]3O)c2n1 [Cpd 4, (1S,2R,3S,4R)-6-{7-[(furan-2-ylmethyl)-amino]-5-propylsulfanyl-[1,2,3]triazolo[4,5-d]pyrimidin-3-yl}-cyclohex-4-ene-1,2,3-triol] | 
3 | 14.7 µM | 2.27 µM | CCCSc1nc(NCCc2cccs2)c2nnn([C@@H]3C=C[C@H](O)[C@@H](O)[C@H]3O)c2n1 [Cpd 7, (1S,2R,3S,4R)-6-[5-propylsulfanyl-7-(2-thiophen-2-yl-ethylamino)-[1,2,3]triazolo[4,5-d]pyrimidin-3-yl]-cyclohex-4-ene-1,2,3-triol] | 
4 | > 30 µM |  | CCCSc1nc(NCc2cccn2C)c2nnn([C@@H]3C=C[C@H](O)[C@@H](O)[C@H]3O)c2n1 [Cpd 8, (1S,2R,3S,6R)-6-{7-[(1-methyl-1H-pyrrol-2-ylmethyl)-amino]-5-propylsulfanyl-[1,2,3]triazolo[4,5-d]pyrimidin-3-yl}-cyclohex-4-ene-1,2,3-triol] | 
5 | > 30 µM |  | CCCSc1nc(NCc2ccco2)c2nnn([C@@H]3CC[C@H](O)[C@@H](O)[C@H]3O)c2n1 [Cpd 18, (1S,2R,3S,4R)-4-{7-[(furan-2-ylmethyl)-amino]-5-propylsulfanyl-[1,2,3]triazolo[4,5-d]pyrimidin-3-yl}-cyclohexane-1,2,3-triol] | 
6 | 2.93 µM |  | CCCCNc1nc(SCCC)nc2c1nnn2[C@@H]1CC[C@H](O)[C@@H](O)[C@H]1O [Cpd 19, (1S,2R,3S,4R)-4-(7-butylamino-5-propylsulfanyl-[1,2,3]triazolo[4,5-d]pyrimidin-3-yl)-cyclohexane-1,2,3-triol] | 

Second part, the compound before the results:

Row | SMILES | IC50 (ADP P2Y12) | IC50 (P2Y12 receptor) | IC50 (washed platelets)
7 | CCCSc1nc(N[C@@H]2C[C@H]2c2ccccc2)c2nnn([C@@H]3C=C[C@H](O)[C@H]4OC(C)(C)O[C@H]43)c2n1 (mixture of isomers) [Cpd 10, (3aR,4S,7R,7aS)-2,2-dimethyl-7-{7-[(1RS,2SR)-2-phenyl-cyclopropylamino]-5-propylsulfanyl-[1,2,3]triazolo[4,5-d]pyrimidin-3-yl}-3a,4,7,7a-tetrahydro-benzo[1,3]dioxol-4-ol] | > 30 µM |  | 
8 | CCCSc1nc(N[C@@H]2C[C@H]2c2ccccc2)c2nnn([C@@H]3C=C[C@H](OCCO)[C@@H](O)[C@H]3O)c2n1 (mixture of isomers) [Cpd 13, (1S,2S,3S,6R)-3-(2-hydroxy-ethoxy)-6-{7-[(1RS,2SR)-2-phenyl-cyclopropylamino]-5-propylsulfanyl-[1,2,3]triazolo[4,5-d]pyrimidin-3-yl}-cyclohex-4-ene-1,2-diol] | > 30 µM | 8.56 µM | 
9 | CCCSc1nc(N[C@@H]2C[C@H]2c2ccccc2)c2nnn([C@@H]3CC[C@H](OCCO)[C@@H](O)[C@H]3O)c2n1 (mixture of isomers) [Cpd 15, (1S,2S,3S,6R)-3-(2-hydroxy-ethoxy)-6-{7-[(1RS,2SR)-2-phenyl-cyclopropylamino]-5-propylsulfanyl-[1,2,3]triazolo[4,5-d]pyrimidin-3-yl}-cyclohexane-1,2-diol] | 2.63 µM | 6.6 µM | 
10 | CCCSc1nc(N[C@@H]2C[C@H]2c2ccccc2)c2nnn(C3[C@@H](O)[C@@H](O)C(OCCO)[C@@H](O)[C@H]3O)c2n1 (mixture of isomers) [Cpd 12, (1R,2R,4S,5S)-3-(2-hydroxy-ethoxy)-6-{7-[(1RS,2SR)-2-phenyl-cyclopropylamino]-5-propylsulfanyl-[1,2,3]triazolo[4,5-d]pyrimidin-3-yl}-cyclohexane-1,2,4,5-tetraol] | 6.9 µM | 2.2 µM | 
11 | CCCSc1nc(NC[C@@H]2CCCO2)c2nnn([C@@H]3C=C[C@H](O)[C@@H](O)[C@H]3O)c2n1 [Cpd 3, (1S,2R,3S,6R)-6-(5-propylsulfanyl-7-{[(2S)-tetrahydro-furan-2-ylmethyl]-amino}-[1,2,3]triazolo[4,5-d]pyrimidin-3-yl)-cyclohex-4-ene-1,2,3-triol] | > 30 µM | 4.75 µM | 
12 | CCCSc1nc(NCC2CCCN2CC)c2nnn([C@@H]3C=C[C@H](O)[C@@H](O)[C@H]3O)c2n1 (stereo partly drawn) [Cpd 6, (1S,2R,3S,4R)-6-{7-[(1-ethyl-pyrrolidin-2-ylmethyl)-amino]-5-propylsulfanyl-[1,2,3]triazolo[4,5-d]pyrimidin-3-yl}-cyclohex-4-ene-1,2,3-triol] | > 30 µM |  | 
13 | CCCSc1nc(NC[C@@H]2CCCO2)c2nnn([C@@H]3CC[C@H](O)[C@@H](O)[C@H]3O)c2n1 [Cpd 16, (1S,2R,3S,4R)-4-(5-propylsulfanyl-7-{[(2S)-tetrahydro-furan-2-ylmethyl]-amino}-[1,2,3]triazolo[4,5-d]pyrimidin-3-yl)-cyclohexane-1,2,3-triol] | > 30 µM |  | 
14 | CCCSc1nc(NC[C@H]2CCCO2)c2nnn([C@@H]3CC[C@H](O)[C@@H](O)[C@H]3O)c2n1 [Cpd 17, (1S,2R,3S,4R)-4-(5-propylsulfanyl-7-{[(2R)-tetrahydro-furan-2-ylmethyl]-amino}-[1,2,3]triazolo[4,5-d]pyrimidin-3-yl)-cyclohexane-1,2,3-triol] | > 30 µM |  | > 30 µM
15 | CCCSc1nc(NCCc2cccs2)c2nnn([C@@H]3CC[C@H](O)[C@@H](O)[C@H]3O)c2n1 [Cpd 20, (1S,2R,3S,4R)-4-[5-propylsulfanyl-7-(2-thiophen-2-yl-ethylamino)-[1,2,3]triazolo[4,5-d]pyrimidin-3-yl]-cyclohexane-1,2,3-triol] | > 30 µM |  | 
16 | CCCSc1nc(N[C@@H]2CCN(Cc3ccccc3)C2)c2nnn([C@@H]3CC[C@H](O)[C@@H](O)[C@H]3O)c2n1 [Cpd 22, (1S,2R,3S,4R)-4-{7-[(3R)-1-benzyl-pyrrolidin-3-ylamino]-5-propylsulfanyl-[1,2,3]triazolo[4,5-d]pyrimidin-3-yl}-cyclohexane-1,2,3-triol] | > 30 µM |  | 
